Measured values as given in patent US20110112010A1, “OCTANOIC ACID FORMULATIONS AND METHODS OF TREATMENT USING THE SAME” (The Government of the United States of America, as …, priority 2008, published 2011).

Experiments:
[1] = Pharmacokinetics of oral 1-octanol and its metabolite octanoic acid in plasma of adults with Essential Tremor; type: in vivo, human
Protocol: Subjects: All subjects underwent a routine medical screening and neurological examination. A structured ethanol challenge was carried out to confirm tremors were ethanol-responsive. Subjects were videotaped at 0, 15, 30, 45, 60, and 75-minutes after receiving two servings (50-ml each) of 40% ethanol along with digitized spirography measures. Ethanol-responsive subjects then completed either a dose titration (1-64 mg/kg) inpatient study or a fixed dose (64 mg/kg) inpatient study to characterize the pharmacokinetics of 1-octanol and its predicted primary metabolite octanoic acid (OA). Plasma Sampling: During the inpatient study, subjects received oral 1-octanol followed by collection of plasma samples at the following intervals: 5, 20, 45, 70, 100, 130, 160, 210, 270 and 360-minutes post-dose. Samples were processed then batch analyzed using high-performance liquid chromatography and mass spectrometry methods to measure concentrations of 1-octanol and OA.

Essential Tremor [2] = experiment: Tremor assessment by digitized Archimedes spirals after oral 1-octanol; type: in vivo, human
Protocol: Subjects: All subjects underwent a routine medical screening and neurological examination. A structured ethanol challenge was carried out to confirm tremors were ethanol-responsive. Subjects were videotaped at 0, 15, 30, 45, 60, and 75-minutes after receiving two servings (50-ml each) of 40% ethanol along with digitized spirography measures. Ethanol-responsive subjects then completed either a dose titration (1-64 mg/kg) inpatient study or a fixed dose (64 mg/kg) inpatient study to characterize the pharmacokinetics of 1-octanol and its predicted primary metabolite octanoic acid (OA). Tremor Assessment: To assess efficacy, subjects drew Archimedes spirals at fixed intervals on a digitizing tablet with an overlaid spiral guide. We used in-house analysis software to process the data before conducting a fast Fourier transform of tremor velocity to obtain our frequency and power measures.

Essential Tremor [3] = details: humans with Essential Tremor; Bushara 2004, Shill 2004; cited from earlier work
[4] = test system: hereditary essential tremor; details: patients with hereditary essential tremor; Brain 1994, 117: 805-824; cited from earlier work
harmaline-induced tremor = experiment: Harmaline mouse model of essential tremor (motion power percentage); type: in vivo; details: male ICR mice, harmaline 20 mg/kg s.c., octanoic acid i.p. in PEG-300
Description: The harmaline model of essential tremor: Harmaline is a beta-carboline alkaloid that produces action tremor on systemic administration to mammals (see Llinas et al., Exp Brain Res 18:69 (1973)). […] Harmaline thus acts within the olivo-cerebellar system to produce tremor and can be used as a model to assess potential ET therapies (see Martin et al., Mov. Disord. 20:298 (2005)).
Animals: Male ICR mice (20-24 g) from Harlan (Indianapolis, Ind.) were housed in groups in standard cages with ad libitum access to commercial rodent diet and water.
Tremor measurement: Motion activity was measured with a Convuls-1 Replacement Sensing Platform model 1335-1A (Columbus Instruments, Columbus, Ohio), a metal platform with a load sensor beneath it, that is connected to a Grass model P511 AC amplifier (Grass Instruments, West Warwick, R.I.) with 1 and 70 Hz filter settings. Digitally recorded motion power was analyzed using Cambridge converter and software. Data was sampled at 128 Hz. The total motion power for each 20-minute epoch was calculated between 0 and 34 Hz (full motion spectrum) and between 10 and 16 Hz (the harmaline tremor frequency bandwidth); and the motion power percentage (10-16 Hz power)/(0-34 Hz power)×100 then calculated. This percentage is expressed as motion power percentage (MPP). […]

CCCCCCCCO [1-octanol]
1-octanol concentration as a function of oral dose ([1]; oral 1-octanol dose titration 1-64 mg/kg): remained at very low basal levels until the 64 mg/kg dose
peak tremor reduction from baseline (Essential Tremor [2]; at 120 minutes post-dose): 42%
persistence of tremor-reducing effect (Essential Tremor [2]; last timepoint 360 minutes): > 360 min
safety and tremor suppression in early human studies (Essential Tremor [3]): safe and effective at tremor suppression

CCO [ethanol]
proportion of patients in whom treatment was effective [4]: 50%

CCCCCCCC(=O)O [octanoic acid]
OA plasma half-life ([1]; human, in vivo, po): approximately 74 minutes
earliest time at which OA plasma concentrations were detectable post-dose ([1]; human, in vivo, po): 5 min
persistence of OA plasma levels following administration ([1]; human, in vivo, po): up to 6 hours
suppression of harmaline-induced tremor (harmaline-induced tremor): suppressed harmaline-induced tremor in a dose dependent fashion
